Series [1] concerns 3T3-L1 cells. As to the kind of experiment: Adipocyte differentiation of 3T3-L1 cells, Oil-red O staining. It is filed as cell-based, mouse. The conditions noted are these: for adipose differentiation: amount dependent. As for the experimental part:
(§1) HEK293 (human embryonic kidney) cells were obtained from the American Type Culture Collection (Manassas, Va.). 3T3-L1 and 3T3-F442A preadipocytes were kindly given by Dr. Jae-Woo Kim (Yonsei University, Seoul, Korea). Cells were cultured in DMEM supplemented with 10% fetal bovine serum (FBS). Differentiation of 3T3-L1 cells was induced with 1 μM dexamethasone, 500 μM 3-isobutyl-a-methylxanthine, and 5 μg/ml of insulin (DMI), which is designated DMI. From 2 to 8 days after DMI treatment, cells were maintained in DMEM containing 10% FBS and 1 μg/ml of insulin and the medium was changed every other day. Adipocyte differentiation of hADSCs was induced with DMI and 200 μM indomethacin in α-MEM supplemented with 10% FBS. Cells were incubated in 5% CO2 and 20% O2 at 37° C.
Adipocytes were fixed with 3.7% of formalin and stained with 0.3% Oil-red-O solution (Sigma-Aldrich) dissolved in isopropanol. 0.5% Oil-red-O (Sigma-Aldrich) was dissolved in isopropanol. Oil-red-O stock solution and H2O were mixed at a ratio of 6:4 and filtered. Then 60% Oil-red-O stock solution was incubated with the cells for 1 h and washed with distilled water and scanned for image.

Series [2] has as its system PPAR-v. Nature of the series: Western blotting of PPAR-v protein expression in 3T3-L1 cells. It counts as cell-based, mouse. As for the experimental part:
as §1
(§2) Proteins in cell lysates were electrophoresed on SDS-polyacrylamide gels and transferred to Immobilon-P membranes (Millipore, Billerica, Mass.). Membranes were preincubated with 5% skim milk in TTBS (Tris-buffered saline containing 0.1% Tween 20) for 30 min and incubated overnight with primary antibody diluted 1:500 to 1:3000 in the TTBS. The membranes were further incubated with a horseradish peroxidase conjugated secondary antibody for 1 h and visualized using Pierce ECL Plus western blotting substrate according to the manufacturer's instruction (Thermo Fisher Scientific, Waltham, Mass.).

For series [3], the system named is PPAR-v. Nature of the series: Quantitative RT-PCR of PPAR-v mRNA in 3T3-L1 cells. It counts as cell-based, mouse. The protocol:
as §1
(§3) Total RNAs were isolated from cultured cells using TRIzol® (Invitrogen). The EasyScript™ cDNA Synthesis Kit (Applied Biological Materials Inc., Richmond, Canada) was used to synthesize cDNAs. The level of each cDNA was relatively quantified by being divided by the 18S rRNA level in the corresponding sample.

Series [4] deals with C/EBP-β. As to the kind of experiment: Quantitative RT-PCR of C/EBP-β mRNA in 3T3-L1 cells. It is filed as cell-based, mouse. The protocol: as §1, §3
In series [5] the test system is FABP4. As to the kind of experiment: Quantitative RT-PCR of FABP4 mRNA in 3T3-L1 cells. It counts as cell-based, mouse. The protocol: as §1, §3
Series [6] relates to CD36. Nature of the series: Quantitative RT-PCR of CD36 mRNA in 3T3-L1 cells. It is filed as cell-based, mouse. The protocol:
as §1, §3

For series [7], the system named is C/EBP-β. As to the kind of experiment: Western blotting of C/EBP-β protein expression in 3T3-L1 cells. It counts as cell-based, mouse. The note with it: FIG. 1E. The protocol: as §1, §2
In general terms: A western blot detects proteins with antibodies after separation by electrophoresis.

The test system of series [8] is PPAR-v. Nature of the series: Ubiquitination of PPAR-v, western blotting. It is filed as cell-based. The note with it: neddylation inhibited using siNEDD8; FIG. 3E. As for the experimental part:
as §2
To precipitate HA-tagged proteins, transfected cells were lysed in a buffer containing 5 mM EDTA, 50 mM Tris-Cl, 100 mM NaCl, 0.1% NP-40, and the protease inhibitor cocktail (Sigma-Aldrich). Cell lysates (1 mg proteins) were incubated with EZview™ anti-HA affinity beads sequentially incubated with a primary antibody (10 μg/mL) and protein A/G-Sepharose beads (GE Healthcare, Uppsala, Sweden) at 4° C. for 4 h. Pull down proteins were eluted in a 2×SDS denaturing buffer and subjected to Western blotting as described above. For HA-bead immunoprecipitation, 1 mg of protein was incubated with 10 ul of HA-bead at 4° C. for 4 h and washed. Then proteins were eluted in a 2×SDS denaturing buffer and electrophoresed in a SDS-PAGE gel and subjected to Western blotting as described above.

Where [9] appears, read: 3T3-L1 cells treated with 0.5 μM MLN4924 before the differentiation, 0, 2, 4, 6, 8 days, FIG. 2B.
The mark [10] stands for this setting: knock down after the cells were induced to differentiation, FIG. 1D.
[11] abbreviates: siNEDD8 knock down, PCR at 0, 2, 4, 6, and 8 days after start of differentiation, FIG. 1F.

From patent US10106797B2, “Methods for suppressing adipocyte differentiation” (SEOUL NATIONAL UNIVERSITY R&DB FOUNDATION, priority 2013, dated 2018) come the findings set out here.

Take `NS(=O)(=O)OC[C@@H]1C[C@@H](n2ccc3c(N[C@H]4CCc5ccccc54)ncnc32)C[C@@H]1O` [MLN4924, reference compound]: the “differentiation of 3T3L1 cells into adipocytes” value in series [1] (MLN4924 0.1 and 0.5 μM, before and after differentiation was induced, Oil-red O, FIG. 2A) was “suppressed”. In addition, in series [2] (3T3-L1 cells treated with MLN4924 after the differentiation was induced, FIG. 2A), the “expression of PPAR-v protein” value is given as “suppresses”. The “PPAR-v at the mRNA level” value in series [3] (setting [9]) is on record as “decreased”. Besides, the “C/EBP-β at the mRNA level” value in series [4] (setting [9]) is “decreased”. The “FABP4 at the mRNA level” value in series [5] (setting [9]) is listed as “decreased”. Besides, the “CD36 at the mRNA level” value in series [6] (setting [9]) is “decreased”.
Turning to `COc1ccc(C2=NC(c3ccc(Cl)cc3)C(c3ccc(Cl)cc3)N2C(=O)N2CCNC(=O)C2)c(OC(C)C)c1` (stereo not drawn) [nutlin-3, 4-[4,5-Bis(4-chlorophenyl)-2-(2-isopropoxy-4-methoxy-phenyl)-4,5-dihydro-imidazole-1-carbonyl]-piperazin-2-one, reference compound], the adipose differentiation result in series [1] (nutlin-3 10 and 20 μM, before and after differentiation was induced, FIG. 5D) is “suppressed”.
Consider “siNEDD8: siRNA against NEDD8; Table 1 siNEDD8 is human, SEQ ID NO: 1; text does not say which sequence was used in 3T3-L1 (CAGACAAGGUGGAGCGAAUCAAGGA; other strand not given here)”, for which the adipogenesis result in series [1] (setting [10]) is reported as “suppressed”. Also, the “expression of PPAR-v” value in series [2] (setting [10]) is reported as “suppressed”; in series [2] (knock down before induction, 0, 2, 4, 6 and 8 days during differentiation, compared to control, time dependent, FIG. 1E) it was “decreased”. For the same molecule, the “expression of C/EBP-β” value in series [7] (0, 2, 4, 8, 16, 24 h after the initiation of differentiation) is on record as “decreased”; in series [7] (knock down before induction, 0, 2, 4, 6 and 8 days during differentiation, compared to control, time dependent), “decreased”. For the same molecule, in series [3] (setting [11]), the “mRNA expression level of PPAR-v” value is on record as “decreased”. For the same molecule, the “mRNA expression level of C/EBP-β” value in series [4] (setting [11]) is reported as “decreased”. In addition, the “mRNA expression level of FABP4” value in series [5] (setting [11]) was “decreased”. The “mRNA expression level of CD36” value in series [6] (setting [11]) is “decreased”. Further, the “ubiquitination of PPAR-v” value in series [8] was “increased”.
For the molecule “siMDM2: MDM2 siRNA used in 3T3-L1; probably the mouse one, SEQ ID NO: 8, 5′-GCAAUGAUCUACAGAAAUUUAGUGG-3′ (other strand not given here)”, the adipose differentiation result in series [1] (3T3-L1 transfected with siMDM2 10, 20 or 50 nM, differentiation induced after 2 days, FIG. 5C) is “suppressed”.
